Test results taken from paper PMC12508156, “Non-canonical dihydrolipoyl transacetylase promotes chemotherapy resistance via mitochondrial tetrahydrofolate signaling” (Nature Communications, 2025).
“And” between values parts separate entries of the source, which are not always exact repeats. Identical values can stand only once.

Legend:
Format in all cases: cell-based, human
A549cisR cells = assay: Apoptotic cell death (annexin V/PI staining); settings: cisplatin 2 μg/ml, 48 h, n=1-4: biological replicates, listed as cis
GSH/GSSG [1] = assay: GSH/GSSG ratio (GSH/GSSG-Glo)
Description: Cellular metabolic states were examined through various assays. To gauge the levels of total intracellular or mitochondrial reactive oxygen species (ROS), cells were stained with CM-H2DCFDA or mitoSOX, respectively. Intracellular H2O2, NADPH, acetyl-CoA, and GSH/GSSG ratios were quantified using commercial assay kits as listed in the Reagents. Intracellular ATP levels were determined utilizing the ATP bioluminescent somatic cell assay and normalized to the total protein concentrations. The de novo synthesized RNA and proteins were assessed in cancer cells using commercial assays following the manufacturer’s protocols. In brief, O-propargyl-puromycin or uridine analog, 5-EU, was applied to stop translation or modify RNA. Polypeptides or modified RNA were measured using fluorescent azide with Ex/Em at 494/521 nm. PDC activity was determined by measuring the reduction of NAD+ to NADH during the conversion of pyruvate into acetyl-CoA.
Supplementary Fig. 2: GSH/GSSG ratio and NADPH level change upon DLAT knockdown and cisplatin treatment. A549cisR (a) and KB-3-1cisR (b) cells were transduced with control or […]
µg/ml; KB-3-1cisR: 5 µg/ml) for 24 h. The GSH/GSSG ratio and relative NADPH levels were measured using GSH/GSSG-Glo Assay and NADP/NADPH-Glo Assay, respectively. Error bars represent SD and are from 4 independent biological replicates for the upper panels of (a,b) and 3 for the lower panels of (a,b). P values were determined by one-way ANOVA.
(§1) (1 picture or pasted object on this page, not shown here)

[2] = system: A549cisR and KB-3-1cisR cells; assay: Cell cycle distribution (propidium iodide, flow cytometry)
Description: Cell viability was determined using the CellTiter-Glo Luminescent Cell Viability Assay. […] Subsequently, the cells were cultured in complete medium for an additional 10 days, and the resulting colonies were visualized by staining with crystal violet and quantified using ImageJ software. For cell cycle analysis, cells fixed with 70% ethanol were stained with RNase A (100 µg/mL) and propidium iodide (50 μg/ml) for 30 min at 37 °C, and DNA content distribution was measured using flow cytometry (BD Symphony A3) and analyzed with FlowJo software (v10.9). Apoptotic cell death was assessed via FITC-conjugated annexin V and propidium iodide staining.
1cisR cells were transduced with DLAT-targeting shRNA and treated with sublethal doses of […]
antioxidant N-acetylcysteine (NAC). (a) Western blot analysis of p21 waf1/cip1 expression as a marker of cellular senescence. (b) Western blot analysis of LC3-I/II and p62 as markers of autophagy. (c) Cell cycle distribution was assessed by flow cytometry following propidium iodide staining. (d) Intracellular ROS levels were measured using the H2DCFDA probe. Error bars represent SD and are from 3 independent biological replicates for (c,d). P values were determined by one-way ANOVA.
as §1

GSH/GSSG [3] = assay: GSH/GSSG ratio (GSH/GSSG-Glo); remark: listed apart in the source
[4] = A549cisR cells, pLKO.1, replicate 1
[5] = A549cisR cells, pLKO.1, replicate 2
[6] = A549cisR cells, pLKO.1, replicate 3
[7] = A549cisR cells, shDLAT, replicate 1
[8] = A549cisR cells, shDLAT, replicate 2
[9] = A549cisR cells, shDLAT, replicate 3
[10] = KB-3-1cisR cells, pLKO.1, replicate 1
[11] = KB-3-1cisR cells, pLKO.1, replicate 2
[12] = KB-3-1cisR cells, pLKO.1, replicate 3
[13] = KB-3-1cisR cells, shDLAT, replicate 1
[14] = KB-3-1cisR cells, shDLAT, replicate 2
[15] = KB-3-1cisR cells, shDLAT, replicate 3

## N.N.[Cl][Pt][Cl] [cisplatin]
A549cisR cells; A549cisR pLKO.1+pLHCX
  Apoptotic death: 7.05 and 8.53 and 8.99 and 9.51
A549cisR cells; A549cisR shDLAT+DLAT(WT) rescue
  Apoptotic death: 7.31 and 8.35 and 8.93 and 10.11
GSH/GSSG [1]; A549cisR cells, pLKO.1, n=2
  GSH/GSSG: 20.0066
GSH/GSSG [1]; A549cisR cells, shDLAT, n=3
  GSH/GSSG: 8.945
GSH/GSSG [1]; KB-3-1cisR cells, shDLAT, n=1
  GSH/GSSG: 6.046
GSH/GSSG [1]; KB-3-1cisR cells, shDLAT, n=2
  GSH/GSSG: 6.2227
[2]; [4]
  Cell cycle, G1 phase: 34.1
  Cell cycle, G2 phase: 36.2
  Cell cycle, S phase: 29.7
[2]; [5]
  Cell cycle, G1 phase: 33.1
  Cell cycle, G2 phase: 39.3
[2]; [6]
  Cell cycle, G1 phase: 33.1
  Cell cycle, G2 phase: 38.8
  Cell cycle, S phase: 28.1
[2]; [7]
  Cell cycle, G1 phase: 39.2
  Cell cycle, G2 phase: 37.2
  Cell cycle, S phase: 23.6
[2]; [8]
  Cell cycle, G1 phase: 39.5
  Cell cycle, G2 phase: 39.6
  Cell cycle, S phase: 20.9
[2]; [9]
  Cell cycle, G1 phase: 39.5
  Cell cycle, G2 phase: 38.6
  Cell cycle, S phase: 21.9
[2]; [10]
  Cell cycle, G1 phase: 23.3
  Cell cycle, G2 phase: 58.9
  Cell cycle, S phase: 17.8
[2]; [11]
  Cell cycle, G1 phase: 23.7
  Cell cycle, G2 phase: 58.1
  Cell cycle, S phase: 18.2
[2]; [12]
  Cell cycle, G1 phase: 24.3
  Cell cycle, G2 phase: 57.9
  Cell cycle, S phase: 17.8
[2]; [13]
  Cell cycle, G1 phase: 18.3
  Cell cycle, G2 phase: 63.6
  Cell cycle, S phase: 18.1
[2]; [14]
  Cell cycle, G1 phase: 17.6
  Cell cycle, G2 phase: 63.5
  Cell cycle, S phase: 18.9
[2]; [15]
  Cell cycle, G1 phase: 17
  Cell cycle, S phase: 19.8
GSH/GSSG [3]; A549cisR cells, pLKO.1, n=1
  GSH/GSSG: 18.3651
GSH/GSSG [3]; A549cisR cells, pLKO.1, n=3
  GSH/GSSG: 19.3614
GSH/GSSG [3]; A549cisR cells, pLKO.1, n=4
  GSH/GSSG: 18.0395
GSH/GSSG [3]; A549cisR cells, shDLAT, n=1
  GSH/GSSG: 8.402
GSH/GSSG [3]; A549cisR cells, shDLAT, n=2
  GSH/GSSG: 8.901
GSH/GSSG [3]; A549cisR cells, shDLAT, n=4
  GSH/GSSG: 10.9995
GSH/GSSG [3]; A549cisR, CTL, sheet Figure 5G, replicate n=1
  GSH/GSSG: 25.1517
GSH/GSSG [3]; A549cisR, CTL, sheet Figure 5G, replicate n=2
  GSH/GSSG: 26.0996
GSH/GSSG [3]; A549cisR, CTL, sheet Figure 5G, replicate n=3
  GSH/GSSG: 23.5884
GSH/GSSG [3]; A549cisR, shDLAT+Flag-MTHFD2 (K44Q), sheet Figure 5G, replicate n=1
  GSH/GSSG: 31.9457
GSH/GSSG [3]; A549cisR, shDLAT+Flag-MTHFD2 (K44Q), sheet Figure 5G, replicate n=2
  GSH/GSSG: 29.1783
GSH/GSSG [3]; A549cisR, shDLAT+Flag-MTHFD2 (K44Q), sheet Figure 5G, replicate n=3
  GSH/GSSG: 30.4077
GSH/GSSG [3]; A549cisR, shDLAT+Flag-MTHFD2 (K44R), sheet Figure 5G, replicate n=1
  GSH/GSSG: 8.894
GSH/GSSG [3]; A549cisR, shDLAT+Flag-MTHFD2 (K44R), sheet Figure 5G, replicate n=2
  GSH/GSSG: 10.2513
GSH/GSSG [3]; A549cisR, shDLAT+Flag-MTHFD2 (K44R), sheet Figure 5G, replicate n=3
  GSH/GSSG: 9.633
GSH/GSSG [3]; A549cisR, shDLAT, sheet Figure 5G, replicate n=1
  GSH/GSSG: 8.501
GSH/GSSG [3]; A549cisR, shDLAT, sheet Figure 5G, replicate n=2
  GSH/GSSG: 9.861
GSH/GSSG [3]; A549cisR, shDLAT, sheet Figure 5G, replicate n=3
  GSH/GSSG: 10.404
GSH/GSSG [3]; KB-3-1cisR cells, pLKO.1, n=1
  GSH/GSSG: 14.1658
GSH/GSSG [3]; KB-3-1cisR cells, pLKO.1, n=2
  GSH/GSSG: 13.5059
GSH/GSSG [3]; KB-3-1cisR cells, pLKO.1, n=3
  GSH/GSSG: 14.1711
GSH/GSSG [3]; KB-3-1cisR cells, pLKO.1, n=4
  GSH/GSSG: 12.6758
GSH/GSSG [3]; KB-3-1cisR cells, shDLAT, n=3
  GSH/GSSG: 6.177
GSH/GSSG [3]; KB-3-1cisR cells, shDLAT, n=4
  GSH/GSSG: 6.252
GSH/GSSG [3]; KB-3-1cisR, CTL, sheet Figure 5G, replicate n=1
  GSH/GSSG: 15.3805
GSH/GSSG [3]; KB-3-1cisR, CTL, sheet Figure 5G, replicate n=2
  GSH/GSSG: 14.4145
GSH/GSSG [3]; KB-3-1cisR, CTL, sheet Figure 5G, replicate n=3
  GSH/GSSG: 16.7699
GSH/GSSG [3]; KB-3-1cisR, shDLAT+Flag-MTHFD2 (K44Q), sheet Figure 5G, replicate n=1
  GSH/GSSG: 25.3381
GSH/GSSG [3]; KB-3-1cisR, shDLAT+Flag-MTHFD2 (K44Q), sheet Figure 5G, replicate n=2
  GSH/GSSG: 26.6695
GSH/GSSG [3]; KB-3-1cisR, shDLAT+Flag-MTHFD2 (K44Q), sheet Figure 5G, replicate n=3
  GSH/GSSG: 26.7501
GSH/GSSG [3]; KB-3-1cisR, shDLAT+Flag-MTHFD2 (K44R), sheet Figure 5G, replicate n=1
  GSH/GSSG: 6.376
GSH/GSSG [3]; KB-3-1cisR, shDLAT+Flag-MTHFD2 (K44R), sheet Figure 5G, replicate n=2
  GSH/GSSG: 6.273
GSH/GSSG [3]; KB-3-1cisR, shDLAT+Flag-MTHFD2 (K44R), sheet Figure 5G, replicate n=3
  GSH/GSSG: 6.832
GSH/GSSG [3]; KB-3-1cisR, shDLAT, sheet Figure 5G, replicate n=1
  GSH/GSSG: 7.027
GSH/GSSG [3]; KB-3-1cisR, shDLAT, sheet Figure 5G, replicate n=2
  GSH/GSSG: 6.914
GSH/GSSG [3]; KB-3-1cisR, shDLAT, sheet Figure 5G, replicate n=3
  GSH/GSSG: 7.456
